# Source: patent US20260152501A1, “CYCLIN MODULATOR” (EUBULUS BIOTHERAPEUTICS (HONG KONG) LIMITED, priority 2022, published 2026)
# Read-outs that look alike come from different tables or passages of the source.
# Columns and labels:
# Assay type in all cases: cell-based
# HT-29 cells = assay: Cell proliferation experiment, HT-29 cells; details: Homo sapiens, Cell Titer-Glo, read-out: Cell antiproliferation data HT-29
# Procedure: (§1) Reagents: RPMI-1640 medium, McCoy's 5A medium, IMDM medium, MEM medium, L-15 medium, fetal bovine serum, Penicillin-Streptomycin double antibody, trypsin, etc., 2-mercaptoethanol, NEAA, pyruvate, etc.
# (§2) The test cells were cultured in conventional ways, and the cells should be passed for at least 2 generations before plating.
# (§3) 25 μL of 1000 HT-29, N87, SKOV3, Colo-205 and MDA-MB-231 cells were inoculated in a 384-well plate with black wall and transparent bottom, 25 μL of different concentrations of compounds were added, and the cells were cultured overnight under condition of 37° C. and 5% CO2.
# (§4) 25 μL of 1500 H82 and H69 cells were inoculated in a 384-well plate with black wall and transparent bottom, 25 μL of different concentrations of compounds were added, and the cells were cultured for 72 hours under condition of 37° C. and 5% CO2. The 384-well plate was equilibrated at room temperature, 25 μL of Cell Titer-Glo® reagent was added to each well, and the cells were lysed by shaking on a horizontal shaking shaker for 2 minutes, incubated at room temperature for 10 minutes to stabilize the luminescent signal, and then the chemiluminescent signal was detected using Envision.
# (§5) All cells were subjected to IC50 test for corresponding samples.
# (§6) The fluorescence intensity of each well was detected using the Alarm blue method, and EC50 was calculated.
# (§7) IC50 was calculated according to the following formula:
# (§8) [formula] • wherein, Min, Max and Slope represent the minimum, maximum and slope respectively.
# H69 cells = assay: Cell proliferation experiment, H69 cells; details: cultured for 72 hours, Cell Titer-Glo, read-out: Cell antiproliferation data H69
# Procedure: as §1, §2, §4
# (§9) All cells were subjected to IC50 test for corresponding samples. […]
# as §7, §8
# H82 cells = assay: Cell proliferation experiment, H82 cells; details: Homo sapiens, NCI-H82, cultured for 72 hours, Cell Titer-Glo, read-out: Cell antiproliferation data H82
# Procedure: as §1, §2, §4, §9, §7, §8
# N87 cells = assay: Cell proliferation experiment, N87 cells; details: Cell Titer-Glo, read-out: Cell antiproliferation data N87
# Procedure: as §1, §2, §3, §4, §5, §6, §7, §8
# Colo-205 cells = assay: Cell proliferation experiment, Colo-205 cells; details: Homo sapiens, COLO 205, Colo-205 cells, Cell Titer-Glo; read-out: Cell antiproliferation data Colo-205
# Procedure: as §1, §2, §3, §4, §5, §6, §7, §8
# MDA-MB-231 cells = assay: Cell proliferation experiment, MDA-MB-231 cells; details: Homo sapiens, Cell Titer-Glo, read-out: Cell antiproliferation data MDA-MB-231
# Procedure: as §1, §2, §3, §4, §5, §6, §7, §8
# SKOV3 cells = assay: Cell proliferation experiment, SKOV3 cells; details: Homo sapiens, SK-OV-3, SKOV3 cells, Cell Titer-Glo; read-out: Cell antiproliferation data SKOV3
# Procedure: as §1, §2, §3, §4, §5, §6, §7, §8
# HepG2 cells = assay: Antiproliferative effect on HepG2 cells; details: Homo sapiens
# Procedure: as §1, §2, §5, §6, §7, §8
# Cyclin K = assay: Immunohistochemistry (IHC) staining of Cyclin K in HepG2 cells; details: incubated with compound 2 hours, CCNK antibody
# Procedure: Appropriate amount of compounds were added to the cultured cells. The cells were incubated in a tissue culture incubator at 37° C. for 2 hours.
# After washing the cultured cells twice with PBS, 100 μL 10% neutral buffered formalin were added and the cells were fixed for 20 minutes.
# After washing 3 times with PBS, immunohistochemical staining was performed using CCNK antibody and general two-step detection kit (mouse/rabbit enhanced polymer detection system, PV-9000, Zsbio Inc, Beijing).
# Specifically, 100 μL of endogenous peroxidase blocker in the kit was added, cells were incubated at room temperature for 10 minutes; rinsed with PBS buffer for 3 minutes×3 times.
# 100 μL CCNK antibody 1:5000 dilution was added, and the cells were incubated at 37° C. for 60 minutes; rinsed with PBS buffer for 3 minutes×3 times.
# 100 μL reaction enhancer was added, and the cells were incubated at 37° C. for 20 minutes; rinsed with PBS buffer for 3 minutes×3 times.
# 100 μL enhanced enzyme-labeled goat anti-mouse/rabbit IgG polymer was added, and the cells were incubated at 37° C. for 20 minutes; rinsed with PBS buffer for 3 minutes×3 times.
# The cells were placed in 75% ethanol, soaked for 3 minutes×2 times; placed in 95% ethanol, soaked for 3 minutes×2 times; after removing excess liquid, placed in anhydrous ethanol, soaked for 3 minutes×3 times; after removing excess liquid, air dried, observed under a microscope and taken pictures after sealing.
IC50 (HT-29 cells) [nM],IC50 (Colo-205 cells) [nM],IC50 (MDA-MB-231 cells) [nM],IC50 (SKOV3 cells) [nM],IC50 (HepG2 cells) [nM],SMILES,"IC50 (H69 cells; Homo sapiens, NCI-H69, 72 h) [nM]",IC50 (H82 cells) [nM],IC50 (N87 cells) [nM],IC50 (H69 cells) [nM],Cyclin K IHC data of HepG2 cells (Cyclin K)
≤ 100,≤ 100,≤ 100,100 to 300,–,"CC(C)n1cnc2c(NCc3ccc(-c4ccccc4)cc3)nc(N[C@H]3CCCNC3)nc21 [UB-015, (S)-N6-([1,1′-biphenyl]-4-ylmethyl)-9-isopropyl-N2-(Piperidin-3-yl)-9H-purin-2,6-diamine]",100 to 300,≤ 100,≤ 100,–,–
–,–,–,–,> 300,"CC(C)n1cnc2c(NCc3ccc(-c4ccccc4)c(OCCN)c3)nc(N3CCNCC3)nc21 [UB-062, N-((2-(2-aminoethoxy)-[1,l′-biphenyl]-4-yl)methyl)-9-isopropyl-2-(piperazin-1-yl)-9H-purin-6-amine]",–,–,–,–,D (D > 278 nM)
–,–,–,–,< 50,"CC(C)n1cnc2c(NCc3ccc(-c4ccccc4)cc3)nc(N3CCNC[C@H]3C)nc21 [UB-020, (R)-N-([1,1′-biphenyl]-4-ylmethyl)-9-isopropyl-2-(2-methylpiperazin-1-yl)-9H-purin-6-amine]",–,–,–,–,B (31 nM < B <= 93 nM)
–,–,–,–,< 50,"CC(C)n1cnc2c(NCc3ccc(-c4ccccc4)cc3)nc(N[C@H]3CC[C@H](N)C3)nc21 [UB-040, N6-([1,1′-biphenyl]-4-yl-methyl)-N2-((1S,3S)-3-aminocyclopentyl)-9-isopropyl-9H-purin-2,6-diamine]",–,–,–,–,B (31 nM < B <= 93 nM)
–,–,–,–,< 50,"CC(C)n1cnc2c(NCc3ccc(-c4ccccc4)cc3)nc(N[C@H]3C[C@@H](N)C3)nc21 [UB-041, N6-([1,1′-biphenyl]-4-yl-methyl)-N2-((1s,3s)-3-aminocyclobutyl)-9-isopropyl-9H-purin-2,6-diamine]",–,–,–,–,C (93 nM < C <= 278 nM)
–,–,–,–,> 300,"Cn1cc(-n2cnc3c(NCc4ccc(-c5ccccc5)cc4)nc(N4CCNCC4)nc32)cn1 [UB-055, N-([1,1′-biphenyl]-4-ylmethyl)-9-(1-methyl-1H-pyrazol-4-yl)-2-(piperazin-1-yl)-9H-purin-6-amine]",–,–,–,–,D (D > 278 nM)
–,–,–,–,< 50,"c1ccc(-c2ccc(CNc3nc(N4CCNCC4)nc4c3ncn4C3CCC3)cc2)cc1 [UB-052, N-([1,l′-biphenyl]-4-ylmethyl)-9-cyclobutyl-2-(piperazin-1-yl)-9H-purin-6-amine]",–,–,–,–,C (93 nM < C <= 278 nM)
–,–,–,–,< 50,"CC(C)n1cnc2c(NCc3ccc(-c4ccccc4)cc3)nc(N3CCNC[C@H]3CO)nc21 [UB-022, (S)-(1-(6-(([1,1′-biphenyl]-4-ylmethyl)amino)-9-isopropyl-9H-purin-2-yl)piperazin-2-yl) methanol]",–,–,–,–,A (A <= 31 nM)
–,–,–,–,< 50,"CC(C)n1cnc2c(NCc3ccc(-c4ccccc4)cc3)nc(N[C@@H]3CCNC3)nc21 [UB-038, (R)-N6-([1,1′-biphenyl]-4-ylmethyl)-9-isopropyl-N2-(pyrrolidin-3-yl)-9H-purin-2,6-diamine]",–,–,–,–,C (93 nM < C <= 278 nM)
–,–,–,–,> 300,"c1ccc(-c2ccc(CNc3nc(N4CCNCC4)nc4c3ncn4-c3ccccc3)cc2)cc1 [UB-053, N-([1,1′-biphenyl]-4-ylmethyl)-9-phenyl-2-(piperazin-1-yl)-9H-purin-6-amine]",–,–,–,–,D (D > 278 nM)
–,–,–,–,100 to 300,"CC(C)n1cnc2c(NCc3ccc(-c4ccccc4OCCCCO)cc3)nc(N3CCNCC3)nc21 [UB-050, 4-((4′-(((9-isopropyl-2-(piperazin-1-yl)-9H-purin-6-yl)amino)methyl)-[1,1′-biphenyl]-2-yl)oxy)butan-1-ol]",–,–,–,–,D (D > 278 nM)
–,–,–,–,50 to 100,"CC(C)n1cnc2c(NCc3ccc(-c4ccccc4OCCO)cc3)nc(N3CCNCC3)nc21 [UB-047, 2-((4′-(((9-isopropyl-2-(piperazin-1-yl)-9H-purin-6-yl)amino)methyl)-[1,1′-biphenyl]-2-yl)oxy)ethan-1-ol]",–,–,–,–,D (D > 278 nM)

# The next lines start with the compound.
SMILES,IC50 (HT-29 cells) [nM],IC50 (Colo-205 cells) [nM],IC50 (MDA-MB-231 cells) [nM],IC50 (SKOV3 cells) [nM],IC50 (HepG2 cells) [nM],"IC50 (H69 cells; Homo sapiens, NCI-H69, 72 h) [nM]",IC50 (H82 cells) [nM],IC50 (N87 cells) [nM],IC50 (H69 cells) [nM],Cyclin K IHC data of HepG2 cells (Cyclin K)
CCn1cnc2c(NCc3ccc(-c4cccc(CO)n4)cc3)nc(N3CCNCC3)nc21 [UB-002],≤ 100,≤ 100,≤ 100,–,–,≤ 100,100 to 300,≤ 100,–,–
"CC(C)n1cnc2c(NCc3ccc(-c4ccccc4)cc3)nc(N3CCN(C)CC3)nc21 [UB-011, N-([1,l′-biphenyl]-4-ylmethyl)-9-isopropyl-2-(4-methylpiperazin-1-yl)-9H-purin-6-amine]",100 to 300,> 300,100 to 300,> 300,–,> 300,100 to 300,100 to 300,–,–
CCn1cnc2c(NCc3ccc(-c4cccc(CO)n4)cc3)nc(N3CCOCC3)nc21 [UB-001],≤ 100,100 to 300,≤ 100,–,–,≤ 100,100 to 300,≤ 100,–,–
"CC[C@H](CO)Nc1nc(NCc2ccc(-c3ccccc3)cc2)c2ncn(C(C)C)c2n1 [UB-007, (R)-2-((6-(([1,1′-biphenyl]-4-ylmethyl)amino)-9-isopropyl-9H-purin-2-yl)amino)butan-1-ol]",100 to 300,> 300,> 300,> 300,–,> 300,100 to 300,100 to 300,–,–
"CC(C)n1cnc2c(NCc3ccc(-c4ccccc4)cc3)nc(N[C@@H]3CCCNC3)nc21 [UB-014, (R)-N6-([1,1′-biphenyl]-4-ylmethyl)-9-isopropyl-N2-(Piperidin-3-yl)-9H-purin-2,6-diamine]",≤ 100,≤ 100,≤ 100,100 to 300,–,100 to 300,≤ 100,≤ 100,–,–
"CC(C)n1cnc2c(NCc3ccc(-c4ccccc4)cc3)nc(N3CCNCC3)nc21 [UB-010, N-([1,1′-biphenyl]-4-ylmethyl)-9-isopropyl-2-(piperazin-1-yl)-9H-purin-6-amine]",≤ 100,≤ 100,≤ 100,≤ 100,–,100 to 300,≤ 100,≤ 100,–,–
CCn1cnc2c(NCc3ccc(-c4cccc(CO)n4)cc3)nc(N3CCN(C)CC3)nc21 [UB-003],≤ 100,≤ 100,≤ 100,–,–,100 to 300,–,–,–,–
"CC(C)n1cnc2c(NCc3ccc(-c4ccccc4)cc3)nc(N3CCOCC3)nc21 [UB-009, N-([1,1′-biphenyl]-4-ylmethyl)-9-isopropyl-2-morpholino-9H-purin-6-amine]",> 300,> 300,> 300,> 300,–,> 300,> 300,> 300,–,–
"CC(C)n1cnc2c(NCc3ccc(-c4ccccc4)cc3)nc(N3CCC[C@H](N)C3)nc21 [UB-012, (S)-N-([1,1′-biphenyl]-4-ylmethyl)-2-(3-aminopiperidin-1-yl)-9-isopropyl-9H-purin-6-amine]",≤ 100,≤ 100,≤ 100,100 to 300,–,100 to 300,≤ 100,≤ 100,–,–
CCn1cnc2c(NCc3ccc(-c4cccc(CO)c4)cc3)nc(N3CCNCC3)nc21 [UB-004],≤ 100,100 to 300,≤ 100,100 to 300,–,–,–,–,> 300,–
CCn1cnc2c(NCc3ccc(-c4ccccn4)cc3)nc(N[C@H]3CC[C@H](O)CC3)nc21 [UB-006],≤ 100,≤ 100,≤ 100,≤ 100,–,> 300,–,–,–,–
